In data set [1] the test system is 3D7A P. falciparum mature gametocytes. More on the design: method as in PMID 22514702. As to conditions: ATP bioluminescence assay, read-out: P.f. gametocytes IC50; cited from earlier work.
Data set [2] concerns late-stage (stage V) Plasmodium falciparum gametocytes. In words: Cidal vs static activity assay by qPCR of late-stage gametocyte-specific mRNA (Pf77, ROM3, Pfg377). The data set is classed as cell-based. As to conditions: Pf77 coding gene; 48 h drug treatment only; TCMDC-125114 at 100 × IC50; CQ at 2, 20 and 125 × asexual IC50. A general note: In qPCR the cycle at which signal appears reflects the starting amount.

Data set [3] has the same test system. The data set is described as above. Particulars: for cidal vs static effect against late-stage gametocytes (mRNA profile T∞ vs T48) / increase in Ct values, constant drug pressure (T∞) / decrease in mRNA levels (fold change), constant drug pressure (T∞) / increase in Ct values after drug removal (T48): Pf77 coding gene; for cidal vs static effect against late-stage gametocytes (mRNA profile T∞ vs T48): 144 h, concentrations of Table 1; for increase in Ct values, constant drug pressure (T∞) / decrease in mRNA levels (fold change), constant drug pressure (T∞): drug present for 144 h (T∞); for increase in Ct values, constant drug pressure (T∞): 20 × IC50 (EX 2 × IC50); for decrease in mRNA levels (fold change), constant drug pressure (T∞): from Ct increase; for reduction of mRNA levels after drug removal (T48): drug present only 48 h (T48), from Ct values; for increase in Ct values after drug removal (T48): drug present 48 h, then 96 h without drug (T48). The data set is classed as cell-based. The protocol: The in vitro cidal or static anti-malarial activity of a compound against the later stages of gametocyte development at day 15 was assessed by measuring mRNA levels in P.falciparum over 144 h following drug treatment (Fig. 1). Drug activity assays were performed once in two independent cultures in T-75 flasks (Corning, NY, USA). Late-stage gametocytes were incubated with drug and 6 % haematocrit over 48 h. […] IC50 values were obtained from Lelievre et al.. To remove drug from the medium, parasite cultures were harvested and washed two times with 25 ml of RPMI. After drug removal, the parasites were cultured for a further 96 h with complete culture medium either without or with drug, at the same concentration as the initial incubation, to evaluate the reversibility of the compound effect. Medium was changed daily and two samples of 1000 µl of culture at 0, 48, 96, and 144 h were taken, centrifuged and immediately stored at −80 °C for further analysis. An untreated culture was used as a […].
Fig. 1 Scheme showing the cidal vs static in vitro activity assay against stage V Plasmodium falciparum gametocytes. Gametocytes were incubated for 48 h with 20 × IC50. After drug was washed out, the parasites were cultured for 96 h with complete culture medium with drug (A) or without drug (B) to evaluate the reversibility of compound effects. Two samples at t = 0, 48, 96, and 144 h were taken for RNA extraction, cDNA synthesis and qPCR amplification. Comparison of mRNA levels of treated P. falciparum cultures upon removal of the drug was used to assess the cidal vs static activity
For RNA extraction, RNeasy Plus mini kit (Qiagen, Hilden, Germany) was used according to the standard protocol supplied by the manufacturer. cDNA synthesis and SYBR green qPCR were performed in duplicate following the protocol already published by Bahamontes-Rosa et al.. Melting curve analysis was always performed at the end of each assay as a specificity control.
Threshold cycle (Ct) values from the measurement of the cDNA samples were obtained in duplicate using the 7000 and the 7500 fast system Software (Applied Biosystem) and further analysed using an excel data sheet (Microsoft Corporation). The average value was taken as the result and only duplicate Ct values within ±1 Ct difference were accepted. Ct values were used to quantify the relative amount of target PCR product present in each reaction; values are inversely proportional to the amount of template in the sample.
Gene expression during gametocytogenesis was represented with an adaptation of the method described by Livak and Schmittgen as (Ctgene−Ct18S rRNA)Ttime […](Ctgene−Ct18S rRNA)T0, considering the expression at time 0 (T0) as the basal expression and using the 18S rRNA gene as housekeeping gene. Absolute quantification (direct comparison of Ct values) was considered the most appropriate method for the drug activity assays.
Two different treatments were performed in parallel, one with constant drug pressure throughout the experiment (T∞), 144 h in total, and another in which the gametocyte cultures were exposed to the compound for only 48 h, the drug was washed out and then cultured for a further 96 h in fresh complete culture medium (T48) (see Fig. 1).

For data set [4] the following is noted: cytotoxicity, short-term resazurin-based reductase assay; cited from earlier work. (In general: The colour change of resazurin is a common sign of viable cells or microbes.)
In data set [5] the test system is oocysts. More on the design: method as in PMID 26317851. Particulars: SMFA ex vivo, assayed at 2.5 µM; cited from earlier work.

The values that follow come from paper PMC4957904, “A novel validated assay to support the discovery of new anti-malarial gametocytocidal agents” (Malaria Journal, 2016).

“Also recorded” adds a separate entry of the source.

The IC50 is the midpoint of a concentration-inhibition curve.

Consider `CCN(CC)CCCC(C)Nc1ccnc2cc(Cl)ccc12` (centres unmarked) [Chloroquine, reference compound], for which the IC50 in data set [1] is 23500 nM. The “effect on Ct values at increasing concentrations, 48 h drug exposure (minimal gametocytocidal concentration)” value in data set [2] is “no Ct increase”. Moreover, in data set [3], the “cidal vs static effect against late-stage gametocytes (mRNA profile T∞ vs T48)” value (shortened to “cidal vs static effect”) is “did not affect mature gametocytes”.

Consider `C[C@H]1[C@@H](O)O[C@@H]2O[C@@]3(C)CC[C@H]4[C@H](C)CC[C@@H]1[C@@]24OO3` [Dihydroartemisinin, reference compound], for which the TOX50 in data set [4] was over 50 µM. The IC50 in data set [1] is 3560 nM. Further, in data set [3], the “cidal vs static effect” value is reported as “static”; the “increase in Ct values, constant drug pressure (T∞)” value (“increase in Ct values … (T∞)” for short) was “at least 5 Ct”; the “decrease in mRNA levels (fold change), constant drug pressure (T∞)” value (from here on “decrease in mRNA levels (fold change)”) is at least 100 fold; the “reduction of mRNA levels after drug removal (T48)” value (from here on “reduction of mRNA levels”) is “less than tenfold”.

As for `CC[C@H](C)[C@H](NC(=O)[C@H]([C@@H](C)CC)N(C)C(C)=O)C(=O)N[C@H](C(=O)N[C@@H](CC(C)C)C(=O)[C@@]1(C)CO1)[C@@H](C)O` [Epoxomicin, reference compound], the TOX50 in data set [4] was 0.003 µM. In data set [1], the 50% inhibitory concentration (IC50) is 0.5 nM. In data set [3], the “cidal vs static effect” value is “static”; the “increase in Ct values … (T∞)” value is recorded as “at least 5 Ct”; the “decrease in mRNA levels (fold change)” value is recorded as at least 100 fold; the “reduction of mRNA levels” value is reported as “less than tenfold”.

Turning to `CN(C)c1ccc2nc3ccc(=[N+](C)C)cc-3sc2c1` [Methylene blue, reference compound], the TOX50 in data set [4] was 6.52 µM. Moreover, the IC50 in data set [1] was 490 nM. Moreover, in data set [3], the “cidal vs static effect” value is listed as “cidal”.

Consider `CNC(=S)NN=C(C)c1ccccn1` [TCMDC-123475], for which the TOX50 in data set [4] was over 25 µM. Moreover, the IC50 in data set [1] is 9.8 nM. For the same compound, in data set [3], the “cidal vs static effect” value is “prolonged reduction in mRNA levels only when the drug was continuously present”; the “increase in Ct values … (T∞)” value was 7 Ct; the “decrease in mRNA levels (fold change)” value is listed as “more than 100 fold”.

Consider `Cc1[nH]c2ccccc2c1C(=O)C(C)Sc1n[nH]c(-c2ccccc2Br)n1` (centres unmarked) [TCMDC-125114], for which the TOX50 in data set [4] is over 50 µM. Moreover, the “reduction in the number of oocysts” value in data set [5] is 100%. For the same compound, the IC50 in data set [1] was 130 nM. Also, the “effect on Ct values at increasing concentrations, 48 h drug exposure (minimal gametocytocidal concentration)” value in data set [2] is “cidal activity”. In data set [3], the “cidal vs static effect” value is “prolonged reduction in mRNA levels only when the drug was continuously present”; the “increase in Ct values … (T∞)” value is 7 Ct; the “decrease in mRNA levels (fold change)” value is “more than 100 fold”.

As to `COc1cccc(NC(=O)[C@H](C(C)C)n2c(=O)[nH]c3ccccc3c2=O)c1` [TCMDC-125133], the TOX50 in data set [4] was over 50 µM. Also, the “reduction in the number of oocysts” value in data set [5] is 100%. Also, the IC50 in data set [1] is 540 nM. Moreover, in data set [3], the “cidal vs static effect” value is “prolonged reduction in mRNA levels only when the drug was continuously present”; the “increase in Ct values … (T∞)” value amounted to 7 Ct; the “decrease in mRNA levels (fold change)” value is “more than 100 fold”.

Regarding `CC(C)c1ccc(NC(=S)NN=Cc2ccccn2)cc1` [TCMDC-125520], the TOX50 in data set [4] was 12.80 µM. Moreover, in data set [1], the IC50 was 9.8 nM. For the same compound, in data set [3], the “cidal vs static effect” value is on record as “static; also recorded: prolonged reduction in mRNA levels only when the drug was continuously present”; the “increase in Ct values after drug removal (T48)” value was at most 2 Ct; the “increase in Ct values … (T∞)” value was about 5 Ct; the “decrease in mRNA levels (fold change)” value is listed as “ca. 100 fold”. For the same compound, the “reduction of mRNA levels” value in data set [3] is given as “less than tenfold”.

Take `Br.Cc1ccnc(Nc2nc(-c3ccccn3)cs2)c1` [TCMDC-125769]: the TOX50 in data set [4] is on record as over 25 µM. Also, the IC50 in data set [1] was 40 nM. Moreover, in data set [3], the “cidal vs static effect” value was “static; also recorded: prolonged reduction in mRNA levels only when the drug was continuously present”; the “increase in Ct values after drug removal (T48)” value is reported as at most 2 Ct; the “increase in Ct values … (T∞)” value was about 5 Ct; the “decrease in mRNA levels (fold change)” value is “ca. 100 fold”. Besides, in data set [3], the “reduction of mRNA levels” value is on record as “less than tenfold”.

Turning to `CN1CCOc2ccc(Nc3nnc(-c4cccc(-c5cccnc5)c4)o3)cc2C1` [TCMDC-134278], the TOX50 in data set [4] is recorded as 19.95 µM. The IC50 in data set [1] is over 5000 nM.

For `CCNCc1cccc(-c2ccc3ccnc(N)c3c2)c1` [TCMDC-136869], in data set [4], the TOX50 is reported as 12.59 µM. For the same compound, the IC50 in data set [1] was 1660 nM.

For `C=C(NC(=O)C(=C)NC(=O)c1csc(C2=N[C@@H]3c4csc(n4)[C@H]4NC(=O)c5csc(n5)[C@H]([C@](C)(O)[C@@H](C)O)NC(=O)[C@H]5CSC(=N5)/C(=C/C)NC(=O)[C@H]([C@@H](C)O)NC(=O)c5csc(n5)[C@]3(CC2)NC(=O)[C@H](C)NC(=O)C(=C)NC(=O)[C@H](C)NC(=O)[C@H]([C@@H](C)CC)N[C@@H]2C=Cc3c([C@H](C)O)cc(nc3[C@H]2O)C(=O)O[C@@H]4C)n1)C(N)=O` [Thiostrepton, reference compound], the IC50 in data set [1] was 900 nM. Moreover, in data set [3], the “cidal vs static effect” value is recorded as “static”; the “increase in Ct values … (T∞)” value was “at least 5 Ct”; the “decrease in mRNA levels (fold change)” value is at least 100 fold; the “reduction of mRNA levels” value is on record as “less than tenfold”.
